Format in all cases: biochemical
For assay [1], the target named is T1, Entamoeba invadens chitinase 4 (rEiCht4) (Entamoeba invadens, UniProt A0A0A1TXF4).
T1 construct: gene EIN_136020
Nature of the assay: 4-MU release by purified recombinant enzyme, specific activity.

The target in assay [2] is T2, Entamoeba invadens chitinase 1 (rEiCht1) (Entamoeba invadens, UniProt A0A0A1U6V8).
T2 construct: gene EIN_404540
The description is as above.

The target in assay [3] is T2, Entamoeba invadens chitinase 1 (rEiCht1). Nature of the assay: fluorogenic 4MU-(GlcNAc)[…] hydrolysis assay with purified recombinant enzyme.
Assay [4] deals with T1, Entamoeba invadens chitinase 4 (rEiCht4). Described as above.

One may read the IC50 as the midpoint of a concentration-inhibition curve.

T2 sequence (A0A0A1U6V8 entry or part of it): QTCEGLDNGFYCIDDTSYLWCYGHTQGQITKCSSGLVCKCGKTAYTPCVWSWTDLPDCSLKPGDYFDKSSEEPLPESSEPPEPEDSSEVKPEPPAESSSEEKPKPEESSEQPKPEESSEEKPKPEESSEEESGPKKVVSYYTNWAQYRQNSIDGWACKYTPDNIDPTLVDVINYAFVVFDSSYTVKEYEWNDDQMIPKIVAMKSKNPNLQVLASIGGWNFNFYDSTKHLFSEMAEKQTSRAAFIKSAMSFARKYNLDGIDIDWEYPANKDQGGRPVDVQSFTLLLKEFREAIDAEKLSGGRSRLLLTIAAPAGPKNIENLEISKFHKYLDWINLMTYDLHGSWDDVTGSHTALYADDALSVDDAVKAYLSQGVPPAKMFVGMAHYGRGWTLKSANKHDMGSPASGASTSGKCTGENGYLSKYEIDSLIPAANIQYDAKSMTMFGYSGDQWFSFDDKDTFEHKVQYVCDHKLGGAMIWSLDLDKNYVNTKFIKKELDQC
T1 sequence (A0A0A1TXF4 entry or part of it): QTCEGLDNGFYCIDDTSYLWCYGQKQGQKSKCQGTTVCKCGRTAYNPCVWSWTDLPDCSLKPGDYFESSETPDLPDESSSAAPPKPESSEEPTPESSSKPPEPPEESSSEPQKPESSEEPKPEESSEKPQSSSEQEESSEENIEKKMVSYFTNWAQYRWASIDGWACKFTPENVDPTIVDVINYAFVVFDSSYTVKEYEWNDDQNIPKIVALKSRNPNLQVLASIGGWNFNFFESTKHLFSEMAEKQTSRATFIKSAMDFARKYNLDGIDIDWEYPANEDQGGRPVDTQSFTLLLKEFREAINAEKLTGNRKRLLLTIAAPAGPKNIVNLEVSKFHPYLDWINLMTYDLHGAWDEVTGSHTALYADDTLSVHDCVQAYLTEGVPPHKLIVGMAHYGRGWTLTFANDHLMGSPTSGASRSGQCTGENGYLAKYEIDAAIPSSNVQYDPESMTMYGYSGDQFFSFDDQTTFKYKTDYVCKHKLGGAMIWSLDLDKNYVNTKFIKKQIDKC

As for `CC(=O)N[C@H]1[C@H](Oc2ccc3c(C)cc(=O)oc3c2)O[C@H](CO)[C@@H](O[C@@H]2O[C@H](CO)[C@@H](O[C@@H]3O[C@H](CO)[C@@H](O)[C@H](O)[C@H]3NC(C)=O)[C@H](O)[C@H]2NC(C)=O)[C@@H]1O` [4-methylumbelliferyl β-D-N,N′,N′′-triacetylchitotrioside], the figures for the “4-MU release by purified recombinant enzyme, specific activity” value in assay [1] and in assay [2] were 6.3 ± 1.1 μmol/min/mg protein and 11.7 ± 5.3 μmol/min/mg protein, respectively.
As to `Cc1nn(C)c(C)c1NS(=O)(=O)c1c(Cl)cc(-c2ccnc(N3CCNCC3)c2)cc1Cl` [D-B-09, 2,6-dichloro-4-[2-(1-piperazinyl)-4-pyridinyl]-N-(1,3,5-trimethyl-1H-pyrazol-4-yl)-benzenesulfonamide], the IC50 stood at 800 ± 200 nM in assay [3] and 2500 ± 1300 nM in assay [4].

The record behind these values is article PMC8552601, “Entamoeba Chitinase is Required for Mature Round Cyst Formation” (Microbiology Spectrum, 2021).
